The text below walks through data of patent US12673936B2, “Isoindolinone compounds, and uses thereof” (HANGZHOU GLUBIO PHARMACEUTICAL CO., LTD., priority 2021, dated 2026).

Where two headings read alike, the source gives them in different places.

Type in all cases: cell-based
One assay has as its target HiBiT tagged CK1α (Homo sapiens, UniProt P48729+Q96SW2). In words: CK1α degradation assay (HiBiT assay). The settings on record: 20 hours; for DC50: concentration at 50% CK1α degradation; for Dmax: HT-1080, HT-1080 cells. The procedure, abridged:
(§1)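 HT-1080 cells stably expressing wild-type CRBN, GSPT1A(1-138)/G575N and HiBiT-tagged CK1α or GSPT1, ~10,000/well, treated with compound from 3.162×10^-4 μM to 10 μM (3.16-fold steps). HiBiT luminescence normalized to DMSO as percent of control.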
(The HiBiT peptide binds its large partner to form an active luciferase.)

In the next assay the target is HiBiT tagged GSPT1 (Homo sapiens, UniProt P15170+Q96SW2). The assay is described as follows: GSPT1 degradation assay (HiBiT assay). The settings on record: for Dmax: HT-1080, HT-1080 cells. The method, boiled down:
as §1

Another assay deals with MV4-11 cells. The assay is described as follows: MV4-11 cell proliferation assay (CTG cell viability). The settings on record: 120 hours, read-out: CTG cell viability assay_MV4-11: IC50. On the procedure: MV4-11 Cell Proliferation Assay
The following is an example of an assay that can be used to determine the dose-dependent, anti-proliferative activity of CK1α degradating compounds in an AML cell line such as MV4-11 (ATCC Cat #CRL-9591).
MV4-11 cells were seeded into a 384-well plate (Cat #3764, Corning) pre-spotted with DMSO or test compounds. Increasing concentrations of test compounds (ranging from 1×10^−3 μM to 10 μM at a 3.162-fold increment in a 10-point dose response assay; ranging from 3.162×10^−4 μM to 10 μM at a 3.162-fold increment in a 11-point dose response assay) or DMSO were dispensed into an empty 384-well plate using an a D300e digital dispenser (Tecan) or an Echo Acoustic Liquid Handler (Beckman Coulter). About 2,000 cells in 50 μL of culture media (IMDM plus 10% heat-inactivated FBS) were seeded per well. Assay plates were incubated at 37° C. with 5% CO2 for 120 hours. After that, 20 μL of the CellTiter-Glo Luminescent Cell Viability Assay Reagent (Cat #G7573, Promega) was added to each well and incubated at room temperature for 30 minutes. Luminescence was then measured with an EnVision plate reader (PerkinElmer) or a PHERAstar plate reader (BMG LABTECH). All cell growth inhibition curves were processed using Collaborative Drug Discovery Vault softwares (Burlingame, CA, www.collaborativedrug.com).
Cell viability reads in compound-treated wells were normalized to that of DMSO control and expressed as Percent of Control (PoC, y). A four Parameter Logistic Model was used to determine the compound's EC50 and DC50, using the following equation:
[formula] • A==lowest cell viability read normalized to DMSO control in response to compound treatment, as determined by curve fit • B=cell viability read in DMSO control • C=EC50 • D=Hill Slope • x=compound concentration • EC50=the concentration of compound when y=(B−A)/2 • IC50=the concentration of the compound when y=50% of DMSO control • y=cell viability read normalized to DMSO control Ymin=(A/B)*100% • Ymin represents the lowest cell viability % that can be achieved by the compound treatment in the assay.

Setting [1] is: 20 hours, maximum GSPT1 degradation.

Chain of HiBiT tagged CK1α (P48729 whole entry): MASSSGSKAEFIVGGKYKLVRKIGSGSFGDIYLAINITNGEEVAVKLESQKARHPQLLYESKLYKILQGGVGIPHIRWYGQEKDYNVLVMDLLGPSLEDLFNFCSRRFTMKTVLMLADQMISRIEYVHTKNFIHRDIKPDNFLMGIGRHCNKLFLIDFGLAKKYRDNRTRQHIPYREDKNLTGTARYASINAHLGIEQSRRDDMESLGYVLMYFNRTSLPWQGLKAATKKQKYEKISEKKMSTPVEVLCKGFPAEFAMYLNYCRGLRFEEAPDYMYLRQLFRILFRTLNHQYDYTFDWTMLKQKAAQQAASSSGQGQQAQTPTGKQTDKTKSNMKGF
Chain of HiBiT tagged CK1α (Q96SW2 whole entry): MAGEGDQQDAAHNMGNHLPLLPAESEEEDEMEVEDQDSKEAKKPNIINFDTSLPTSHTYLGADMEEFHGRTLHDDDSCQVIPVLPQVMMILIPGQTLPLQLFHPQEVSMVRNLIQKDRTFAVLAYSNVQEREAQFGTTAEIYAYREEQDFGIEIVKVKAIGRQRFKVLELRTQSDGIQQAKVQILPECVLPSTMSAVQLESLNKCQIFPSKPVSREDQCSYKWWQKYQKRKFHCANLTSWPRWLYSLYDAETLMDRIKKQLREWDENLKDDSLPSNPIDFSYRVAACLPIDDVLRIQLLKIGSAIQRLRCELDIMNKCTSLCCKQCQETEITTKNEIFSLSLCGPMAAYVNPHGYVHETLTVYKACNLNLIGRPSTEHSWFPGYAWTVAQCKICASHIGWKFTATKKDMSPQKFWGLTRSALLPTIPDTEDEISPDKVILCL
Chain of HiBiT tagged CK1α (Q16531 whole entry partner): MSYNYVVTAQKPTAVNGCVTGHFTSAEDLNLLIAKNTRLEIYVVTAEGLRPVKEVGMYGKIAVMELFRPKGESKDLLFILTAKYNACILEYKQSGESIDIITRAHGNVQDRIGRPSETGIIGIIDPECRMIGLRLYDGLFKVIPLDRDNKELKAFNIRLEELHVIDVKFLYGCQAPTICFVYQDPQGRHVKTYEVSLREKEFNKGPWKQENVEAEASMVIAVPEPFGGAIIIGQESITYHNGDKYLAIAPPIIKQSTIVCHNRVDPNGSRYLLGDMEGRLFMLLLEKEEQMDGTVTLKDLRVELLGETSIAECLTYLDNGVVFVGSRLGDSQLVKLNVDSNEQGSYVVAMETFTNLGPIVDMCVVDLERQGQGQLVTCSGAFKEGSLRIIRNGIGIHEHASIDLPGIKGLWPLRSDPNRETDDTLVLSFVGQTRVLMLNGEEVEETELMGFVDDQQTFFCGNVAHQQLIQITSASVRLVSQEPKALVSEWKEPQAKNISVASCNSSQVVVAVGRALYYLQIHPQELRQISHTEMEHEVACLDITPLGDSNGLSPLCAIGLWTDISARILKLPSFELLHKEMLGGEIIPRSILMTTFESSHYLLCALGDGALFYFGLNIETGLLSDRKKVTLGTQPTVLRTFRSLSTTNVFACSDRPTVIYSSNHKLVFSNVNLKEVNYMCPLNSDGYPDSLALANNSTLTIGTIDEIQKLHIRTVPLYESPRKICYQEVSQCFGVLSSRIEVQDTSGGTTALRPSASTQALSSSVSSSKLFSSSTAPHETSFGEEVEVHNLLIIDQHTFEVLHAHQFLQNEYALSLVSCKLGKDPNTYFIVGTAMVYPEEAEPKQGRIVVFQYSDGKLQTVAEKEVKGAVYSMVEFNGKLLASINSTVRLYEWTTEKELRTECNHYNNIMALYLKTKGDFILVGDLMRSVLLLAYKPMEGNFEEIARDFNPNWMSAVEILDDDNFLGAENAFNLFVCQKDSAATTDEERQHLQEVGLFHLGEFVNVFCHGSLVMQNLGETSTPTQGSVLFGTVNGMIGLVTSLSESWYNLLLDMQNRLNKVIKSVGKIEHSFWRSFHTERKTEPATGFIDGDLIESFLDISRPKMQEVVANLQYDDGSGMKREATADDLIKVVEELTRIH
Chain of HiBiT tagged GSPT1 (P15170 whole entry): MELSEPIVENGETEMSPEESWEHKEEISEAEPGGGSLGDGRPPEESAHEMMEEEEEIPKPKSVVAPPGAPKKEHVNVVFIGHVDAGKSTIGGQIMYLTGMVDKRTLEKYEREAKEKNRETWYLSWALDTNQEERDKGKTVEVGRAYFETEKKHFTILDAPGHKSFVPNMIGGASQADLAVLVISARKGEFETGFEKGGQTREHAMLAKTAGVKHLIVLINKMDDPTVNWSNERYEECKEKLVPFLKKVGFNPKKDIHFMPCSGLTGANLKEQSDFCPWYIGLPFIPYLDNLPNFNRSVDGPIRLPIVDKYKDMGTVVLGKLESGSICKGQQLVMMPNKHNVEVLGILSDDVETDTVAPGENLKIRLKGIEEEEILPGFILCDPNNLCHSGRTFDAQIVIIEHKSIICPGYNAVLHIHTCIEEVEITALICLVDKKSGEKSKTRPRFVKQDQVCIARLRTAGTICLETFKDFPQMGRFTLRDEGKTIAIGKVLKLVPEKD
Chain of HiBiT tagged GSPT1 (Q96SW2 whole entry): as the sequence (Q96SW2 whole entry) above
Chain of HiBiT tagged GSPT1 (Q16531 whole entry partner): as the sequence (Q16531 whole entry partner) above

By DC50 is commonly meant the midpoint of the concentration-degradation curve. Higher therefore signals a less potent degrader. What is called IC50 is the concentration that inhibits the measured activity by half. At HiBiT tagged CK1α (HT-1080 cells), `O=C1CC[C@@H](N2Cc3cc(C(=O)N[C@H](c4ccc(F)cc4)C4CCC4)ccc3C2=O)C(=O)N1` (relative stereo) [Compound 8, N—((*S)-cyclobutyl(4-fluorophenyl)methyl)-2-((R)-2,6-dioxopiperidin-3-yl)-1-oxoisoindoline-5-carboxamide] showed a DC50 of 160 nM. Besides, the “HiBiT CK1α: Dmax” value on HiBiT tagged CK1α (HT-1080 cells, maximum CK1α degradation) was determined as 72.9%. Besides, the “HiBiT GSPT1: Dmax” value at HiBiT tagged GSPT1 (HT-1080 cells, 20 hours, maximum GSPT1 degradation) is 23.4%. In the assay with MV4-11 cells, the 50% inhibitory concentration (IC50) was determined as 205 nM.

What is called Dmax is the largest share of the target that was removed. With `O=C1CCC(N2Cc3cc(C(=O)N[C@@H](c4ccc(F)cc4)C4CC(F)(F)C4)ccc3C2=O)C(=O)N1` (single isomer, unassigned) [Compound 5], the Dmax on HiBiT tagged CK1α (maximum CK1α degradation) is 75.9%; at HiBiT tagged GSPT1 (setting [1]), 30.3%. The half-maximal inhibitory concentration (IC50) with MV4-11 cells (Homo sapiens) came out at 363 nM.

`O=C1CCC(N2Cc3cc(C(=O)N[C@H](c4ccc(F)cc4)C4CC(F)(F)C4)ccc3C2=O)C(=O)N1` (single isomer, unassigned) [Compound 6]: the values for the Dmax at HiBiT tagged CK1α (maximum CK1α degradation) and on HiBiT tagged GSPT1 (setting [1]) were 60.9% and 30.1%, respectively. Further, the half-inhibitory concentration (IC50) in the assay on MV4-11 cells (Homo sapiens) is 691 nM.

Regarding `O=C1CC[C@H](N2Cc3cc(C(=O)N[C@H](c4ccc(F)cc4)C4CCC4)ccc3C2=O)C(=O)N1` (single isomer, unassigned) [Compound 9, N—((*S)-cyclobutyl(4-fluorophenyl)methyl)-2-((S)-2,6-dioxopiperidin-3-yl)-1-oxoisoindoline-5-carboxamide], the results for the Dmax on HiBiT tagged CK1α (maximum CK1α degradation) and at HiBiT tagged GSPT1 (setting [1]) were 71.6% and 22.6%, respectively. Moreover, the 50% degradation concentration (DC50) on HiBiT tagged CK1α (HT-1080 cells) amounted to 116 nM. Also, the IC50 in the assay on MV4-11 cells (Homo sapiens) was 172 nM.

`Cn1cc(-c2cccnc2[C@@H](NC(=O)c2ccc3c(c2)CN([C@H]2CCC(=O)NC2=O)C3=O)C2CCC2)cn1` (single isomer, unassigned) [Compound 84, N—((*S)-cyclobutyl(3-(1-methyl-1H-pyrazol-4-yl)pyridin-2-yl)methyl)-2-((S)-2,6-dioxopiperidin-3-yl)-1-oxoisoindoline-5-carboxamide]: the figures for the maximal degradation (Dmax) on HiBiT tagged CK1α (maximum CK1α degradation) and at HiBiT tagged GSPT1 (setting [1]) were 72.4% and 15.2%, respectively. Also, half-maximal degradation on HiBiT tagged CK1α (HT-1080 cells) (DC50) was put at 74.1 nM. In the assay on MV4-11 cells (Homo sapiens), the IC50 came to 24 nM.

As to `O=C1CCC(N2Cc3cc(C(=O)N[C@H](c4ccc(Cl)cc4)C4CCC4)ccc3C2=O)C(=O)N1` (stereo in doubt) [Compound 36, N-((*S)-(4-chlorophenyl)(cyclobutyl)methyl)-2-(2,6-dioxopiperidin-3-yl)-1-oxoisoindoline-5-carboxamide], the Dmax at HiBiT tagged CK1α (maximum CK1α degradation) came to 65.8%; on HiBiT tagged GSPT1 (setting [1]), 24.6%. The DC50 on HiBiT tagged CK1α (HT-1080 cells) is 66.7 nM. In the assay on MV4-11 cells (Homo sapiens), the IC50 worked out at 128 nM.

Take `Cc1ccc(NC(=O)NCc2ccc3c(c2)CN(C2CCC(=O)NC2=O)C3=O)cc1Cl` (stereo not shown) [CC-885, reference compound]: the greatest degradation seen (Dmax) at HiBiT tagged CK1α (maximum CK1α degradation) worked out at 53.7%; at HiBiT tagged GSPT1 (setting [1]), 92.5%. Further, the half-maximal degradation concentration (DC50) on HiBiT tagged CK1α (HT-1080 cells) amounted to 653 nM. The “GSPT1 degradation (in words)” value at HiBiT tagged GSPT1 (HT-1080 cells) is recorded as “effectively degraded GSPT1”.

Consider `O=C1CCC(N2Cc3cc(C(=O)NC(c4ccc(F)cc4F)C4CC4)ccc3C2=O)C(=O)N1` (stereo not shown) [Compound 1, N-(cyclopropyl(2,4-difluorophenyl)methyl)-2-(2,6-dioxopiperidin-3-yl)-1-oxoisoindoline-5-carboxamide], for which the Dmax at HiBiT tagged CK1α (maximum CK1α degradation) stood at 66.2%; on HiBiT tagged GSPT1 (setting [1]), 37%. For the same compound, half-maximal degradation on HiBiT tagged CK1α (HT-1080 cells) (DC50) was put at 221 nM.

On to `O=C1CCC(N2Cc3cc(C(=O)NC(c4ccc(Cl)cc4F)C4CC4)ccc3C2=O)C(=O)N1` (stereo not shown) [Compound 14, N-((4-chloro-2-fluorophenyl)(cyclopropyl)methyl)-2-(2,6-dioxopiperidin-3-yl)-1-xoisoindoline-5-carboxamide], for which the greatest degradation seen (Dmax) amounted to 67.1% on HiBiT tagged CK1α (maximum CK1α degradation) and 45.5% at HiBiT tagged GSPT1 (setting [1]). Also, the half-maximal degradation concentration (DC50) at HiBiT tagged CK1α (HT-1080 cells) came out at 284 nM.

For the compound `COc1ccccc1C(NC(=O)c1ccc2c(c1)CN(C1CCC(=O)NC1=O)C2=O)C1CC1` (stereo not shown) [Compound 15, N-(cyclopropyl(2-methoxyphenyl)methyl)-2-(2,6-dioxopiperidin-3-yl)-1-oxoisoindoline-5-carboxamide], the Dmax was 73.2% at HiBiT tagged CK1α (maximum CK1α degradation) and 24.5% at HiBiT tagged GSPT1 (setting [1]). Further, on HiBiT tagged CK1α (HT-1080 cells), half-maximal degradation (DC50) was put at 66.6 nM.

Turning to `O=C1CCC(N2Cc3cc(C(=O)NC(c4ncccc4Cl)C4CC4)ccc3C2=O)C(=O)N1` (stereo not shown) [Compound 16, N-((3-chloropyridin-2-yl)(cyclopropyl)methyl)-2-(2,6-dioxopiperidin-3-yl)-1-oxoisoindoline-5-carboxamide], the maximal degradation (Dmax) was determined as 62.2% at HiBiT tagged CK1α (maximum CK1α degradation) and 44.9% at HiBiT tagged GSPT1 (setting [1]). The compound further registered a DC50 on HiBiT tagged CK1α (HT-1080 cells) of 303 nM.

With `O=C1CCC(N2Cc3cc(C(=O)NC(c4ccc(F)cc4Cl)C4CCC4)ccc3C2=O)C(=O)N1` (stereo not shown) [Compound 19, N-((2-chloro-4-fluorophenyl)(cyclobutyl)methyl)-2-(2,6-dioxopiperidin-3-yl)-1-oxoisoindoline-5-carboxamide], the Dmax worked out at 69.6% at HiBiT tagged CK1α (maximum CK1α degradation) and 43% on HiBiT tagged GSPT1 (setting [1]). Moreover, the half-maximal degradation concentration (DC50) on HiBiT tagged CK1α (HT-1080 cells) is 65.9 nM.

For `O=C1CCC(N2Cc3cc(C(=O)NC(c4c(F)cccc4F)C4CCC4)ccc3C2=O)C(=O)N1` (stereo not shown) [Compound 22, N-(cyclobutyl(2,6-difluorophenyl)methyl)-2-(2,6-dioxopiperidin-3-yl)-1-oxoisoindoline-5-carboxamide], the maximal degradation (Dmax) amounted to 70.7% at HiBiT tagged CK1α (maximum CK1α degradation) and 48.3% at HiBiT tagged GSPT1 (setting [1]). Moreover, the 50% degradation concentration (DC50) at HiBiT tagged CK1α (HT-1080 cells) amounted to 79.7 nM.

`O=C1CCC(N2Cc3cc(C(=O)NC(c4cccc(F)c4)C4CCC4)ccc3C2=O)C(=O)N1` (stereo not shown) [Compound 23, N-(cyclobutyl(3-fluorophenyl)methyl)-2-(2,6-dioxopiperidin-3-yl)-1-oxoisoindoline-5-carboxamide]: the Dmax at HiBiT tagged CK1α (maximum CK1α degradation) came to 61.3%; at HiBiT tagged GSPT1 (setting [1]) it was 32%. In addition, the DC50 at HiBiT tagged CK1α (HT-1080 cells) was found to be 198 nM.

For `O=C1CCC(N2Cc3cc(C(=O)NC(c4ccc(F)cc4)C4CCCC4)ccc3C2=O)C(=O)N1` (stereo not shown) [Compound 37, N-(cyclopentyl(4-fluorophenyl)methyl)-2-(2,6-dioxopiperidin-3-yl)-1-oxoisoindoline-5-carboxamide], the Dmax was 70.8% at HiBiT tagged CK1α (maximum CK1α degradation) and 36.2% on HiBiT tagged GSPT1 (setting [1]). For the same compound, the DC50 on HiBiT tagged CK1α (HT-1080 cells) was found to be 72.7 nM.

For `O=C1CCC(N2Cc3cc(C(=O)NC(c4ccc(F)c(F)c4)C4CCC4)ccc3C2=O)C(=O)N1` (stereo not shown) [Compound 40, N-(cyclobutyl(3,4-difluorophenyl)methyl)-2-(2,6-dioxopiperidin-3-yl)-1-oxoisoindoline-5-carboxamide], the greatest degradation seen (Dmax) on HiBiT tagged CK1α (maximum CK1α degradation) turned out to be 57.5%; on HiBiT tagged GSPT1 (setting [1]) it was 30.6%. On HiBiT tagged CK1α (HT-1080 cells), half-maximal degradation (DC50) was put at 416 nM.

For `O=C1CCC(N2Cc3cc(C(=O)NC(c4cccc(F)c4Cl)C4CC4)ccc3C2=O)C(=O)N1` (stereo not shown) [Compound 43, N-((2-chloro-3-fluorophenyl)(cyclopropyl)methyl)-2-(2,6-dioxopiperidin-3-yl)-1-oxoisoindoline-5-carboxamide], the maximal degradation (Dmax) amounted to 69.8% on HiBiT tagged CK1α (maximum CK1α degradation) and 58.2% on HiBiT tagged GSPT1 (setting [1]). In addition, the 50% degradation concentration (DC50) at HiBiT tagged CK1α (HT-1080 cells) was determined as 49.6 nM.

In the case of `N#Cc1cccc(C(NC(=O)c2ccc3c(c2)CN(C2CCC(=O)NC2=O)C3=O)C2CC2)c1` (stereo not shown) [Compound 44, N-((3-cyanophenyl)(cyclopropyl)methyl)-2-(2,6-dioxopiperidin-3-yl)-1-oxoisoindoline-5-carboxamide], the figures for the Dmax at HiBiT tagged CK1α (maximum CK1α degradation) and at HiBiT tagged GSPT1 (setting [1]) were 49.5% and 22.5%, respectively.

`O=C1CCC(N2Cc3cc(C(=O)NC(c4c(F)cccc4Cl)C4CC4)ccc3C2=O)C(=O)N1` (stereo not shown) [Compound 45, N-((2-chloro-6-fluorophenyl)(cyclopropyl)methyl)-2-(2,6-dioxopiperidin-3-yl)-1-oxoisoindoline-5-carboxamide]: the Dmax was 73.8% on HiBiT tagged CK1α (maximum CK1α degradation) and 42.4% at HiBiT tagged GSPT1 (setting [1]). Further, the half-maximal degradation concentration (DC50) on HiBiT tagged CK1α (HT-1080 cells) was determined as 57.8 nM.

As to `O=C1CCC(N2Cc3cc(C(=O)N[C@H](c4ccc(F)cc4)C4(O)CC4)ccc3C2=O)C(=O)N1` (stereo partly drawn) [Compound 65, 2-(2,6-dioxopiperidin-3-yl)-N—((R)-(4-fluorophenyl)(1-hydroxycyclopropyl)methyl)-1-oxoisoindoline-5-carboxamide], the Dmax on HiBiT tagged CK1α (maximum CK1α degradation) is 59.6%; on HiBiT tagged GSPT1 (setting [1]), 23.1%. Moreover, the DC50 at HiBiT tagged CK1α (HT-1080 cells) is 721 nM.
